The values that follow come from a melting point compilation (Tetko et al.; mined from patent text by program, amines drawn as free bases though some values may be those of a salt).

One may read the melting point as the temperature, or range, at which the solid turns liquid.

Bounds are passed on as bounds.

`COc1ccc(CN2CC(CO)CC2=O)cc1OC` (stereo not given) returned a melting point of 78 to 79 °C. `CCCCc1nc2c(N)nc3ccccc3c2n1CCCCS(C)=O` (stereo not given) had a melting point of 126 to 128 °C. In the case of `Cc1ccc(C(=O)c2ccc(F)cc2)s1` it was 68 °C; in that of `NCC1Cc2cc(-c3ccccc3Cl)cc(F)c2O1` (stereo not given), > 250 °C. In the case of `CCCCCS(=O)(=O)NC(=O)/C(=C/c1ccc(OCCOC)cc1Oc1ncc(Cl)cc1Cl)CC` it was 118 °C; in that of `CCOCc1nnc(C)n1-c1ccc(Cl)cc1C(=O)O`, 173 to 176 °C. Turning to `COc1ccc2c(c1Cl)C=CN(C(C)=O)C2`, the melting point fell in the range of 78 to 80 °C. For `O=C1c2ccc([N+](=O)[O-])cc2C(=O)N1CCSc1ccccc1` the value was 120 to 121 °C; for `COc1ccc(C(=O)O)cc1OC1CC=CC1`, 171 to 173 °C; for `O=C(O)c1cc([N+](=O)[O-])cc2c1CCCC2`, 209 to 212 °C.

On to `CCCc1c(O)ccc2c1OCCC2=O`, for which the melting point was 126 to 129 °C.

In turn, `COC1(c2cc(F)cc(Sc3ccc4c(c3)C=CC4=NO)c2)CCOCC1` yielded a melting point of 124 to 136 °C.

Turning to `Cc1cc(C=O)ccc1C=O`, the melting point fell in the range of 71 to 72 °C. As to `CN(C)CCc1c[nH]c2ccc(CC3COC(=O)N3)cc12` (stereo not given), the melting point lay within 138 to 140 °C.

`C[C@](O)(COc1ccc(C#N)c(F)c1)C(=O)Nc1ccc(C#N)c(C(F)(F)F)c1`: the melting point fell in the range of 124 to 125 °C. In the case of `COC(=O)[C@@H]1CSCN1S(=O)(=O)c1ccc(Cl)c(CBr)c1Cl` it was 48 to 50 °C. In the case of `CCCCC(=O)c1c(-c2ccc3c(Br)c(OCC(=O)O)ccc3c2)sc2ccccc12` it was 164 to 165 °C; in that of `COc1cc2c(cc1S(=O)(=O)c1ccc(F)cc1)CCN(C)CC2`, 129 to 130 °C; in that of `CNC(=O)C(=NOCF)c1ccccc1OC1CCCCO1` (stereo not given), 81 °C. The molecule `CCCc1c(C)c(NC(=O)CC(C)(C)C)c(C)c2c1OCC2c1ccc(C(C)C)cc1` (stereo not given) returned a melting point of 145 to 148 °C. For `O=C(Nc1nc(O)cc(-c2ccccc2)n1)C(F)(F)F` the value was 166 to 168 °C. In the case of `O=C(NCc1ccc(F)cc1)c1ccnc(N2CCN(Cc3ccccn3)C2=O)c1` it was 141 to 142 °C; in that of `CCCCC(=O)Nc1ncc(Br)c(C)c1[N+](=O)[O-]`, 134 to 135 °C.

Consider `CC(=O)N1C(=O)OC[C@H]1c1ccccc1`, for which the melting point was determined as 94 °C.

For the molecule `O=C(O)C1=CC(CF)(CF)Oc2ccc(C(F)(F)C(F)(F)C(F)(F)F)cc21`, the melting point is 162 to 163 °C. For `Cc1cc(-n2cncn2)c2cccc(OCc3c(Cl)ccc(S(=O)(=O)N4CCC[C@H]4C(=O)NCCCN4CCCC4)c3Cl)c2n1` the value was 86 °C; for `Cc1ccc(C2=CCN(CCCc3nnc4n3CCCCC4)CC2)cc1`, 93 to 96 °C; for `Oc1c(CN2CCCC2)cc(Nc2ccnc3cc(C(F)(F)F)ccc23)cc1CN1CCCC1`, 56 to 58 °C.

Consider `CC(=O)CN1C(=O)c2ccccc2C1=O`, for which the melting point is 92 to 94 °C. For `COC(=O)c1ccc2c(c1)Sc1ccc(F)cc1C(O)=C2` the value was 85 to 88 °C; for `CCCc1ccc(-c2ccn([C@H](CC(=O)OCc3ccccc3)C(=O)N[C@H](C(=O)NC)C(C)(C)C)c2)cc1`, 63 to 65 °C. Take `Cc1ccccc1NO`: the melting point was 38 to 39 °C. For `O=C(c1ccccc1)c1cc(-c2ccccc2)c(OS(=O)(=O)c2ccc(C(=O)O)c(O)c2)c(-c2ccccc2)c1` the value was 217 °C; for `COc1nc2ccccc2nc1NC(=O)N1CCN(c2cc(C)cc(C)c2)CC1`, 155 to 157 °C. For `CC1(Cc2ccccc2)OC(=O)Nc2ccc(-c3cccc(Cl)c3)cc21` (stereo not given) the value was 187 to 188 °C; for `CCCOc1ncc(NC(=O)N(C)C)cc1-c1nc2c(CCC)nn(C)c2c(=O)[nH]1`, 219 to 220 °C; for `Cc1cccc2c1CCC(=NO)C2(O)C(F)(F)F` (stereo not given), 154 to 156 °C. In the case of `Cc1ccc(Sc2c(O)c3ccc(Cl)cc3[nH]c2=O)cc1C` it was 267 to 268 °C; in that of `OCC(O)Cc1ncc[nH]1` (stereo not given), 98 to 100 °C; in that of `CC(C)(C)c1ccc(OCC(O)CN2CCC3(CC2)CSC2=C(O3)c3cc(N4CCOCC4)ccc3C(=O)C2=O)cc1` (stereo not given), 107 to 109 °C. The molecule `COC(=O)CN1C(=O)c2c(c3cc(C)ccc3n2C)S1(=O)=O` came in with a melting point of 248 °C.

The molecule `CCc1cn(C)c(C2Cc3ccccc3N2C(C)=O)n1` (stereo not given) had a melting point of 105 to 106 °C. `O=[N+]([O-])c1cc(-c2ccco2)ccc1Nc1cccc(-n2ccnc2)c1` yielded a melting point of 147 to 149 °C. For `CC(=O)n1ccc(N2CCCC2)c1C(=O)c1cccnc1Nc1cccc(Cl)c1` the value was 170 to 173 °C; for `CC1(C)CC(=O)NC2CCCCC2N1CCO` (stereo not given), 154 to 156 °C; for `N#Cc1c(N2CCN(C(=O)c3cccs3)CC2)c2cc(Cl)cnc2n(CC(=O)c2ccccc2)c1=O`, 316 °C.

`CCOc1ccc(S(=O)(=O)N(Cc2ccc(C#N)cc2)[C@@H](CC)c2ccccc2)cc1` gave a melting point of 97 to 98 °C.

With `CCCCCc1ccc(C(O)(c2c(C)cc(C)c(C)c2OC)C(C)C)cc1` (stereo not given), the melting point worked out at 55 °C. For `CSc1cc(C(C)(C)C)nn1C(=O)Cl` the value was 64 to 66 °C. For `Cc1ccc(NS(=O)(=O)c2ccccc2)cc1` the value was 118 to 119 °C; for `COc1ccc(C(C)=O)cc1C(C)=CC(=O)O`, 194 °C; for `O=C1SCc2c1cccc2[N+](=O)[O-]`, 128 to 133 °C.

In turn, `COc1ccc2c(c1Br)CCC1C(=O)N(C)C(=O)C21` (stereo not given) registered a melting point of 196 to 199 °C.

On to `COc1ccc2c(c1)CCC1CCN(C)C(=O)C(CC(C)NC(C)C)=C21` (stereo not given), for which the melting point is 118 to 120 °C. For `COC(=O)c1ccc(NC(=O)c2sc3ccc(OC)cc3c2OC(C)C)cc1O` the value was 158 to 160 °C. `CC1(C)COC(c2sccc2C2c3cc4c(cc3OCC2[N+](=O)[O-])OCO4)=N1` (stereo not given): the melting point is 138 to 140 °C. With `COc1cc2nc3n(c(=O)c2cc1OC)CS(=O)(=O)N3`, the melting point was > 300 °C. On to `CC(=O)NC[C@H]1CN(c2ccc(C3=CCN(C(=O)OCc4ccccc4)CC3)cc2)C(=O)O1`, for which the melting point lay in the range of 166 to 169 °C. For the molecule `CS(=O)(=O)Nc1ccc(C(=O)NCCN2CCc3ccsc3C2c2ccccc2)cc1` (stereo not given), the melting point lay within 185 to 187 °C.

Molecule `COc1cc(OC)c(C2=NC(NC(=O)c3cc4ccccc4[nH]3)C(=O)N(C)c3ccccc32)c(OC)c1` (stereo not given) returned a melting point of 297 °C. `CC(C)(C)[Si](C)(C)O[C@@H]1CO[C@H](c2cccnc2)[C@@H]1CCC(=O)O`: the melting point was in the range of 93 to 94 °C. Molecule `CC1CC(=O)Nc2nc(Br)c3ncccc3c21` (stereo not given) registered a melting point of 251 to 252 °C. In the case of `COc1cc(OCc2ccccn2)ccc1/C=C/C(=O)CC(=O)/C=C/c1ccc2ccn(C)c2c1` it was 191 to 192 °C. For `CCOC(=O)c1c(OC)c2cc(Cl)ccc2c(=O)n1C` the value was 122 to 123 °C; for `CSc1cn(C)cc(-c2cccc(C(F)(F)F)c2)c1=O`, 121 to 122 °C.
